The text below walks through data of patent publication US20100035934A1, “PYRIDINYL-PYRAZOLE DERIVATIVES AND THEIR USE AS POTASSIUM CHANNEL MODULATORS” (NeuroSearch A/S, priority 2007, published 2010).

This assay addresses T1, hSK3 channels (Homo sapiens, UniProt Q9UGI6).
T1 construct: expressed in transfected cells; host or cells: HEK293
The experiment in a line: Whole-cell patch-clamp recording of ionic current through SK channels (subtype 3) in HEK293 cells expressing hSK3. Format: cell-based. The conditions noted are these: baseline current at -75 mV, free Ca2+ 0.3-0.4 μM, room temperature. As to the method:
The ionic current through small-conductance Ca^2+-activated K^+ channels (SK channels, subtype 3) is recorded using the whole-cell configuration of the patch-clamp technique.
HEK293 tissue culture cells expressing hSK3 channels were grown in DMEM (Dulbecco's Modified Eagle Medium) supplemented with 10% FCS (foetal calf serum) at 37° C. in 5% CO2. At 60-80% confluency, cells were harvested by trypsin treatment and seeded on cover slips.
Experiments are carried out on one of several patch-clamp set-ups. Cells plated on coverslips are placed in a 15 μl perfusion chamber (flowrate ˜1 ml/min) mounted on an IMT-2 microscope. The microscopes are placed on vibration-free tables in grounded Faraday cages. All experiments are performed at room temperature (20-22° C.). EPC-9 patch-clamp amplifiers (HEKA-electronics, Lambrect, Germany) are connected to Macintosh computers via ITC16 interfaces. Data are stored directly on the hard-disk and analysed by IGOR software (Wavemetrics, Lake Oswega, Oreg., USA).
The whole-cell configuration of the patch-clamp technique is applied. In short: The tip of a borosilicate pipette (resistance 2-4 MΩ) is gently placed on the cell membrane using remote control systems. Light suction results in the formation of a giga seal (pipette resistance increases to more than […]) and the cell membrane underneath the pipette is then ruptured by more powerful suction. Cell capacitance is electronically compensated and the resistance between the pipette and the cell interior (the series resistance, Rs) is measured and compensated for. Usually the cell capacitance ranges from 5 to 20 pF (depending on cell size) and the series resistance is in the range 3 to 6 MΩ. Rs—as well as capacitance compensation are updated during the experiments (before each stimulus). All experiments with drifting Rs-values are discharged. Leak-subtractions are not performed.
The extracellular (bath) solution contains (in mM): 154 mM KCl, 0.1 CaCl2, 3 MgCl2, 10 HEPES (pH=7.4 with HCl). The test compound was dissolved 1000 times in DMSO from a concentrated stock solution and then diluted in the extracellular solution.
The intracellular (pipette) solution contained: 154 mM KCl, 10 mM HEPES, 10 mM EGTA. Concentrations of CaCl2 and MgCl2 needed to obtain the desired free concentrations of Ca^2+ (0.3-0.4 μM, Mg^2+ always 1 mM) were calculated by EqCal software (Cambridge, UK) and added.
After establishment of the whole-cell configuration, voltage-ramps (normally −80 to +80 mV) are applied to the cell every 5 seconds from a holding potential of 0 mV. […] Active compounds are quantified by calculating the change in baseline current at −75 mV. […]
(In general: In patch-clamp work, channel activity is measured electrically.)

On to `Cc1cc(C)n(-c2cccc(Nc3ccc(Cl)cc3)n2)n1` [Compound A1, (4-Chloro-phenyl)-[6-(3,5-dimethyl-pyrazol-1-yl)-pyridin-2-yl]-amine], for which the “The SC100 (Stimulating Concentration required for increasing the baseline current by 100%)” value is 0.03 µM.

For `Clc1ccc(Nc2cccc(-n3cccn3)n2)c(Cl)c1` [Compound A8, (2,4-Dichloro-phenyl)-(6-pyrazol-1-yl-pyridin-2-yl)-amine], the “The SC100 (Stimulating Concentration required for increasing the baseline current by 100%)” value was 0.3 µM.

As to `Cc1cc(C)n(-c2cccc(Nc3ccc(F)c(F)c3)n2)n1` [Compound C4, (3,4-Difluoro-phenyl)-[6-(3,5-dimethyl-pyrazol-1-yl)-pyridin-2-yl]-amine], the “The SC100 (Stimulating Concentration required for increasing the baseline current by 100%)” value was 0.4 µM.

Turning to `CNc1cc(-n2nc(C)cc2C)nc(Nc2ccc(Cl)cc2)c1N` [Compound D1, 3-Amino-2-(4-chlorophenylamino)-6-(3,5-dimethylpyrazol-1-yl)-4-methylamino-pyridine], the “The SC100 (Stimulating Concentration required for increasing the baseline current by 100%)” value was 0.1 µM.
